One test concerns the target T1, canine TRPM8 (Canis lupus familiaris, UniProt Q1A7N1).
T1 construct: expressed in transfected cells
The experiment in a line: In vitro canine TRPM8 functional assay (icilin-induced Ca2+ fluorescence, FLIPR/FDSS). It is filed as cell-based. The procedure:
The functional activity of compounds of the formula (I) was determined by measuring changes in intracellular calcium concentration using a Ca^2+-sensitive fluorescent dye. The changes in fluorescent signal were monitored by a fluorescence plate reader, either a FLIPR™ (Molecular Devices) or FDSS (Hamamatsu).
HEK293 cells stably expressing canine TRPM8 were routinely grown as monolayers in Dulbecco's minimum essential medium supplemented with 10% FBS, 2 mM L-glutamine, 100 units/mL penicillin, 100 ug/mL streptomycin and 400 μg/mL G418. Cells were maintained in 5% CO2 at 37° C. At 24 hrs prior to assay, cells were seeded in black wall, clear-base poly-D-lysine coated 384-well plates (BD Biosciences, NJ, USA) at a density of 5,000 cells per well in culture medium and grown overnight in 5% CO2 at 37° C. On assay day, growth media was removed and cells were loaded with Calcium 3 Dye (Molecular Devices) for 35 min at 37° C., under 5% CO2 and then for 25 min at room temperature and atmosphere. Subsequently, cells were tested for agonist-induced increases in intracellular Ca^2+ levels using FLIPR™ or FDSS. Cells were challenged with compounds of the formula (I) (at varying concentrations) and intracellular Ca^2+ was measured for 5 min prior to the addition of icilin to all wells to achieve a final concentration that produces approximately an 80% maximal response.
Maximal fluorescence intensity (FI) achieved upon addition of icilin was exported from the FLIPR or FDSS software and further analyzed using GraphPad Prism 3.02 (Graph Pad Software Inc., CA, U.S.A.). Basal FI was subtracted prior to normalizing data to percent of maximal response. Curves were generated using the average of quadruplicate wells for each data point, were analyzed using nonlinear regression of either sigmoidal dose response or sigmoidal dose response (variable slope). Finally, the EC50 and IC50 values were calculated with the best-fit dose curve determined by GraphPad Prism.

The subject of a further test is Sprague-Dawley rats. The test is described as follows: CFA-induced paw radiant heat hypersensitivity. Format: in vivo. Particulars: rat, 30 mg/kg PO, 24 h after intraplantar CFA, radiant heat withdrawal latency. How it is done:
Intraplantar injection of complete Freund's adjuvant (CFA) in rodents results in a long-lasting inflammatory reaction, characterized by a pronounced hypersensitivity to both thermal and mechanical stimuli. This hypersensitivity peaks between 24-72 hours following injection and can last for several weeks. To assess whether test compounds of the formula (I) reverse established hypersensitivity, a 100 μL intraplantar injection of CFA (suspended in a 1:1 emulsion of saline and heat-killed Mycobacterium tuberculosis in mineral oil) can be injected into a single hind paw of Sprague-Dawley rats (typically males ranging from 150-350 g). […]
Each rat is placed in a test chamber on a warm glass surface and allowed to acclimate for approximately 10 minutes. […] An initial (baseline) response latency to the thermal stimulus is recorded for each animal prior to the injection of CFA. Twenty-four hours following intraplantar CFA injection, the response latency of the animal to the thermal stimulus is then re-evaluated and compared to the animal's baseline response time. […] Post-compound treatment withdrawal latencies are assessed at fixed time intervals, typically 30, 60 and 120 minutes. The percent reversal (% R) of hypersenstivitiy is calculated according to the following formula: % Reversal=(Treatment Response−CFA Response)/(Baseline Response−CFA Response)×100.

Structures are written as SMILES. “And” between values parts separate entries of the source, which are not always exact repeats. Identical values can stand only once.

The source of these data is patent US8653099B2, “Cold menthol receptor antagonists” (Janssen Pharmaceutica, priority 2008, dated 2014).

T1 sequence (Q1A7N1 1-1104): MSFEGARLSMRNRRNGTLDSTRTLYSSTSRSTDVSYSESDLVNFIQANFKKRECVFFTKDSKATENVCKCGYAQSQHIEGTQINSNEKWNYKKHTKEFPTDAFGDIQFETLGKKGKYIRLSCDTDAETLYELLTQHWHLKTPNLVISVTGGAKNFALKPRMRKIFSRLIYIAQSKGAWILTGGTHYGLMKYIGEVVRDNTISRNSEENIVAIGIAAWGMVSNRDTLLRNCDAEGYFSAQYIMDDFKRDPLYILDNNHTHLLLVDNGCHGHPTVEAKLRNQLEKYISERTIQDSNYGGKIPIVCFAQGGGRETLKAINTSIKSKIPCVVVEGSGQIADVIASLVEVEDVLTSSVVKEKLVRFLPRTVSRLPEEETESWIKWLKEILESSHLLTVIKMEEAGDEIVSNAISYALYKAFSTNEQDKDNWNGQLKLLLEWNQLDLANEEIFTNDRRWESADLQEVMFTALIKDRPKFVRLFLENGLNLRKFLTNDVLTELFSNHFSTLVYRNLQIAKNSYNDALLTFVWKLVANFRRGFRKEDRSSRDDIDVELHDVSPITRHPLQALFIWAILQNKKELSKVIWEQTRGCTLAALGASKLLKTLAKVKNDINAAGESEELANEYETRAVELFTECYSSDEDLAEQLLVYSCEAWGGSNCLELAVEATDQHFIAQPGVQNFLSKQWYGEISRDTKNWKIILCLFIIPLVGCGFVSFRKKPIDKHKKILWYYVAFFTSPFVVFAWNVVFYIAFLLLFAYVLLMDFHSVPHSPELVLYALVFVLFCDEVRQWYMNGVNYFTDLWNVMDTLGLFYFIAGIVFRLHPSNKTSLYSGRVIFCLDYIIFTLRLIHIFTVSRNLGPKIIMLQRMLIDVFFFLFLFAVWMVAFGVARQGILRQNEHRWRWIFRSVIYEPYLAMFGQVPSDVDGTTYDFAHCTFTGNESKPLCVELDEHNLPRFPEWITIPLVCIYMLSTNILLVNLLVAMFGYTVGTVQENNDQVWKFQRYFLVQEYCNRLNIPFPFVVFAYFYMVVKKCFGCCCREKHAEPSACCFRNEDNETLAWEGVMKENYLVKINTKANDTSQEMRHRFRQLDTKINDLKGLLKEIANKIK

Usually inhibition stands for the relative decrease from the control value, in per cent. As usually defined, the IC50 is the point on the concentration scale where inhibition reaches its midpoint. Take `O=C(Nc1cccc2cnccc12)C(Nc1ccccc1F)c1ccc(C(F)(F)F)cc1` (stereo not drawn) [Cpd 24, 2-(2-Fluorophenylamino)-N-(isoquinolin-5-yl)-2-(4-(trifluoromethyl)phenyl)acetamide]: the inhibition at 0.5 µM against canine TRPM8 (HEK293, 0.5 μM compound, HEK293 canine TRPM8, icilin challenge) amounted to 104%. Further, the 50% inhibitory concentration (IC50) against canine TRPM8 (HEK293 cells stably expressing canine TRPM8, icilin at approx. 80% maximal response, eight-point dose-response) was 54.9 nM and 44.3 nM. Moreover, the “% Reversal @ 2 h” value with Sprague-Dawley rats was found to be 28%.
